According to patent publication US12077503B2, “Substituted cyclic amides and their use as herbicides” (FMC CORPORATION, priority 2015, dated 2024):

Key:
Format in all cases: in vivo
[1] = tested on: ryegrass, Italian (Italian ryegrass, Lolium multiflorum); assay: Test A postemergence; conditions: Lolium multiflorum, post-emergence, 240 h, Postemergence; for pest or weed control at 31 g/ha: 31 g ai/ha, 0 is no effect, 100 is complete control, read-out: Ryegrass, Italian plant response rating (0 to 100 scale); for pest or weed control at 125 g/ha: 125 g ai/ha, visual injury after approx. 10 d, 0 to 100 scale, 0 no effect, 100 complete control, read-out: Plant response rating, Ryegrass, Italian
Procedure, shortened: (§1)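 Ratings of 0 (no effect) to 100 (complete control) come from visual comparison with untreated controls roughly 10 d after treatment. Test chemicals, formulated in a non-phytotoxic solvent mixture with surfactant, were applied either as a preemergence directed soil spray on seeded soil or postemergence to one- to two-leaf plants 2 to 10 cm tall.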

[2] = tested on: barnyardgrass (Echinochloa crus-galli); assay: Test A postemergence; conditions: Echinochloa crus-galli, post-emergence, 240 h, Postemergence; for pest or weed control at 31 g/ha: 31 g ai/ha, 0 is no effect, 100 is complete control, read-out: Barnyardgrass plant response rating (0 to 100 scale); for pest or weed control at 125 g/ha: 125 g ai/ha, visual injury after approx. 10 d, 0 to 100 scale, 0 no effect, 100 complete control, read-out: Plant response rating, Barnyardgrass
Procedure, shortened: as §1

[3] = tested on: giant foxtail (Setaria faberii); assay: Test A postemergence; conditions: Setaria faberi, post-emergence, 240 h, Postemergence; for pest or weed control at 31 g/ha: 31 g ai/ha, 0 is no effect, 100 is complete control, read-out: Foxtail, Giant plant response rating (0 to 100 scale); for pest or weed control at 125 g/ha: 125 g ai/ha, visual injury after approx. 10 d, 0 to 100 scale, 0 no effect, 100 complete control, read-out: Plant response rating, Foxtail, Giant
Procedure, shortened: as §1

[4] = tested on: ragweed (common ragweed, Ambrosia elatior); assay: Test A postemergence; conditions: Ambrosia artemisiifolia, post-emergence, 240 h, Postemergence; for pest or weed control at 31 g/ha: 31 g ai/ha, 0 is no effect, 100 is complete control, read-out: Ragweed plant response rating (0 to 100 scale); for pest or weed control at 125 g/ha: 125 g ai/ha, visual injury after approx. 10 d, 0 to 100 scale, 0 no effect, 100 complete control, read-out: Plant response rating, Ragweed
Procedure, shortened: as §1

[5] = tested on: Galium (catchweed bedstraw, Galium aparine); assay: Test A postemergence; conditions: Galium, post-emergence, 240 h, Postemergence; for pest or weed control at 31 g/ha: 31 g ai/ha, 0 is no effect, 100 is complete control, read-out: Galium plant response rating (0 to 100 scale); for pest or weed control at 125 g/ha: 125 g ai/ha, visual injury after approx. 10 d, 0 to 100 scale, 0 no effect, 100 complete control, read-out: Plant response rating, Galium
Procedure, shortened: as §1

[6] = tested on: pigweed (Amaranthus retroflexus); assay: Test A postemergence; conditions: Amaranthus retroflexus, post-emergence, 240 h, Postemergence; for pest or weed control at 31 g/ha: 31 g ai/ha, 0 is no effect, 100 is complete control, read-out: Pigweed plant response rating (0 to 100 scale); for pest or weed control at 125 g/ha: 125 g ai/ha, visual injury after approx. 10 d, 0 to 100 scale, 0 no effect, 100 complete control, read-out: Plant response rating, Pigweed
Procedure, shortened: as §1

Kochia (Kochia scoparia) [7] = assay: Test A postemergence; conditions: Bassia scoparia, post-emergence, 240 h, Postemergence; for pest or weed control at 31 g/ha: 31 g ai/ha, 0 is no effect, 100 is complete control, read-out: Kochia plant response rating (0 to 100 scale); for pest or weed control at 125 g/ha: 125 g ai/ha, visual injury after approx. 10 d, 0 to 100 scale, 0 no effect, 100 complete control, read-out: Plant response rating, Kochia
Procedure, shortened: as §1

corn (Zea mays) = assay: Test A postemergence; conditions: Zea mays, post-emergence, 240 h, Postemergence; for plant injury at 31 g/ha: 31 g ai/ha, 0 is no effect, 100 is complete control, read-out: Corn plant response rating (0 to 100 scale); for Corn plant response rating (crop injury, 0 = no effect, 100 = complete kill) at 125 g/ha: 125 g ai/ha, visual injury after approx. 10 d, 0 to 100 scale, 100 complete control
Procedure, shortened: as §1

[8] = tested on: wheat (Triticum aestivum); assay: Test A postemergence; conditions: Triticum aestivum, post-emergence, 240 h, Postemergence; for plant injury at 31 g/ha: 31 g ai/ha, 0 is no effect, 100 is complete control, read-out: Wheat plant response rating (0 to 100 scale); for plant injury at 125 g/ha: 125 g ai/ha, visual injury after approx. 10 d, 0 to 100 scale, 0 no effect, 100 complete control, read-out: Plant response rating, Wheat
Procedure, shortened: as §1

[9] = tested on: blackgrass (Alopecurus myosuroides); assay: Test A postemergence; conditions: Alopecurus myosuroides, post-emergence, 240 h, Postemergence; for pest or weed control at 31 g/ha: 31 g ai/ha, 0 is no effect, 100 is complete control, read-out: Blackgrass plant response rating (0 to 100 scale); for pest or weed control at 125 g/ha: 125 g ai/ha, visual injury after approx. 10 d, 0 to 100 scale, 0 no effect, 100 complete control, read-out: Plant response rating, Blackgrass
Procedure, shortened: as §1

[10] = tested on: ryegrass, Italian (Italian ryegrass, Lolium multiflorum); assay: Test A preemergence; conditions: Lolium multiflorum, pre-emergence, 240 h, Preemergence; for pest or weed control at 31 g/ha: 31 g ai/ha, 0 to 100 scale where 0 is no effect and 100 is complete control, read-out: Ryegrass, Italian plant response rating; for pest or weed control at 125 g/ha: 125 g ai/ha, 0 to 100 scale (0 no effect, 100 complete control), read-out: Plant response rating, Ryegrass, Italian
Procedure, shortened: as §1

[11] = tested on: barnyardgrass (Echinochloa crus-galli); assay: Test A preemergence; conditions: Echinochloa crus-galli, pre-emergence, 240 h, Preemergence; for pest or weed control at 31 g/ha: 31 g ai/ha, 0 to 100 scale where 0 is no effect and 100 is complete control, read-out: Barnyardgrass plant response rating; for pest or weed control at 125 g/ha: 125 g ai/ha, 0 to 100 scale (0 no effect, 100 complete control), read-out: Plant response rating, Barnyardgrass
Procedure, shortened: as §1

[12] = tested on: giant foxtail (Setaria faberii); assay: Test A preemergence; conditions: Setaria faberi, pre-emergence, 240 h, Preemergence; for pest or weed control at 31 g/ha: 31 g ai/ha, 0 to 100 scale where 0 is no effect and 100 is complete control, read-out: Foxtail, Giant plant response rating; for pest or weed control at 125 g/ha: 125 g ai/ha, 0 to 100 scale (0 no effect, 100 complete control), read-out: Plant response rating, Foxtail, Giant
Procedure, shortened: as §1

[13] = tested on: ragweed (common ragweed, Ambrosia elatior); assay: Test A preemergence; conditions: Ambrosia artemisiifolia, pre-emergence, 240 h, Preemergence; for pest or weed control at 31 g/ha: 31 g ai/ha, 0 to 100 scale where 0 is no effect and 100 is complete control, read-out: Ragweed plant response rating; for pest or weed control at 125 g/ha: 125 g ai/ha, 0 to 100 scale (0 no effect, 100 complete control), read-out: Plant response rating, Ragweed
Procedure, shortened: as §1

[14] = tested on: pigweed (Amaranthus retroflexus); assay: Test A preemergence; conditions: Amaranthus retroflexus, pre-emergence, 240 h, Preemergence; for pest or weed control at 31 g/ha: 31 g ai/ha, 0 to 100 scale where 0 is no effect and 100 is complete control, read-out: Pigweed plant response rating; for pest or weed control at 125 g/ha: 125 g ai/ha, 0 to 100 scale (0 no effect, 100 complete control), read-out: Plant response rating, Pigweed
Kochia (Kochia scoparia) [15] = assay: Test A preemergence; conditions: Bassia scoparia, pre-emergence, 240 h, Preemergence; for pest or weed control at 31 g/ha: 31 g ai/ha, 0 to 100 scale where 0 is no effect and 100 is complete control, read-out: Kochia plant response rating; for pest or weed control at 125 g/ha: 125 g ai/ha, 0 to 100 scale (0 no effect, 100 complete control), read-out: Plant response rating, Kochia
Procedure, shortened: as §1

[16] = tested on: barnyardgrass (Echinochloa crus-galli); assay: Test B flooded paddy test; conditions: Echinochloa crus-galli, 360 h, Flood, 250 g ai/ha; visually evaluated after 13 to 15 d; read-out: Plant response rating, Barnyardgrass (0 to 100 scale where 0 is no effect and 100 is complete control)
Procedure, shortened: (§2)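 Percent control, visually estimated after 13–15 d in the greenhouse on a 0–100 basis, compares treated pots with untreated ones; compound was put into paddy water 3 cm above the soil when plants had two leaves.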

[17] = tested on: sedge, umbrella (small-flower umbrella sedge, Cyperus difformis); assay: Test B flooded paddy test; conditions: Cyperus difformis, 360 h, Flood, 250 g ai/ha; visually evaluated after 13 to 15 d; read-out: Plant response rating, Sedge, Umbrella (0 to 100 scale where 0 is no effect and 100 is complete control)
Procedure, shortened: as §2

rice (Oryra sativa) = assay: Test B flooded paddy test; conditions: Oryza sativa, 360 h, Flood, 250 g ai/ha; visually evaluated after 13 to 15 d; read-out: Plant response rating, Rice (0 to 100 scale where 0 is no effect and 100 is complete control)
Procedure, shortened: as §2

[18] = tested on: ducksalad (Heteranthera limosa); assay: Test B flooded paddy test; conditions: Heteranthera limosa, 360 h, Flood, 250 g ai/ha; visually evaluated after 13 to 15 d; read-out: Plant response rating, Ducksalad (0 to 100 scale where 0 is no effect and 100 is complete control)
Procedure, shortened: as §2

Row | Structure (SMILES) | pest or weed control at 31 g/ha [1] [%] | pest or weed control at 125 g/ha [1] [%] | pest or weed control at 31 g/ha [2] [%] | pest or weed control at 125 g/ha [2] [%] | pest or weed control at 31 g/ha [3] [%] | pest or weed control at 125 g/ha [3] [%] | pest or weed control at 31 g/ha [4] [%] | pest or weed control at 125 g/ha [4] [%] | pest or weed control at 31 g/ha [5] [%] | pest or weed control at 125 g/ha [5] [%] | pest or weed control at 31 g/ha [6] [%] | pest or weed control at 125 g/ha [6] [%] | pest or weed control at 31 g/ha (Kochia (Kochia scoparia) [7]) [%] | pest or weed control at 125 g/ha (Kochia (Kochia scoparia) [7]) [%] | plant injury at 31 g/ha (corn (Zea mays)) [%] | Corn plant response rating (crop injury, 0 = no effect, 100 = complete kill) at 125 g/ha (corn (Zea mays)) [%] | plant injury at 31 g/ha [8] [%] | plant injury at 125 g/ha [8] [%] | pest or weed control at 31 g/ha [9] [%] | pest or weed control at 125 g/ha [9] [%] | other results
1 | CN1C[C@H](c2ccc(Br)cc2)[C@@H](C(=O)Nc2ccc(F)c(F)c2F)C1=O [Compound 1393] | 0 | 20 | 70 | 90 | 70 | 90 | 0 | 50 | 50 | 60 | 40 | 60 | 30 | 70 | 0 | 80 | 0 | 30 | 20 | 30 | pest or weed control at 31 g/ha [10]: 0%; pest or weed control at 125 g/ha [10]: 20%; pest or weed control at 31 g/ha [11]: 40%; pest or weed control at 125 g/ha [11]: 90%; pest or weed control at 31 g/ha [12]: 80%; pest or weed control at 125 g/ha [12]: 90%; pest or weed control at 31 g/ha [13]: 30%; pest or weed control at 125 g/ha [13]: 90%; pest or weed control at 31 g/ha [14]: 30%; pest or weed control at 125 g/ha [14]: 80%; pest or weed control at 31 g/ha (Kochia (Kochia scoparia) [15]): 40%; pest or weed control at 125 g/ha (Kochia (Kochia scoparia) [15]): 70%; pest or weed control at 250 g/ha [16]: 85%; pest or weed control at 250 g/ha [17]: 0%; pest or weed control at 250 g/ha (rice (Oryra sativa)): 55%; pest or weed control at 250 g/ha [18]: 100%
2 | Cc1ccc([C@H]2CN(C)C(=O)[C@@H]2C(=O)Nc2cccnc2F)cc1 [Compound 1398] | 0 | 40 | 90 | 100 | 90 | 90 | 0 | 30 | 30 | 50 | 0 | 0 | 20 | 60 | 0 | 40 | 0 | 60 | 20 | 60 | pest or weed control at 31 g/ha [10]: 0%; pest or weed control at 125 g/ha [10]: 70%; pest or weed control at 31 g/ha [11]: 100%; pest or weed control at 125 g/ha [11]: 100%; pest or weed control at 31 g/ha [12]: 100%; pest or weed control at 125 g/ha [12]: 100%; pest or weed control at 31 g/ha [13]: 50%; pest or weed control at 125 g/ha [13]: 90%; pest or weed control at 31 g/ha [14]: 0%; pest or weed control at 125 g/ha [14]: 50%; pest or weed control at 31 g/ha (Kochia (Kochia scoparia) [15]): 100%; pest or weed control at 125 g/ha (Kochia (Kochia scoparia) [15]): 90%; pest or weed control at 250 g/ha [16]: 80%; pest or weed control at 250 g/ha [17]: 0%; pest or weed control at 250 g/ha (rice (Oryra sativa)): 15%; pest or weed control at 250 g/ha [18]: 100%
